Reference: patent US20100233172A1, “METHODS OF INHIBITING QUIESCENT TUMOR PROLIFERATION” (Bristol-Myers Squibb Company, priority 2008, published 2010)

How the values were obtained:
HCT-116 cells [1] = test: Clonogenic assay, proliferating (P) versus quiescent (Q) cells; assay type: cell-based, human; details: for P/Q selectivity: ratio derived from the IC90s on HCT116 cells; for IC90: Homo sapiens, HCT-116, P cells, 16 hr treatment
Description: Tumor Cell Lines. […] Proliferating cultures were set up by plating 3×10^5 cells in 10 ml of RPMI medium in T75 flasks on day 0 and treated with compounds (dissolved in fresh medium) on day 2 or 3. Quiescent cultures were set up by plating 3×10^5 cells in 10 ml of RPMI media in T75 flasks on day 0, changing medium on day 2, and treated with drugs dissolved in spent media on day 6 for 17 hr.
Clonogenic Assay. […] After 10 days incubation at 37° C., colonies were stained with crystal violet.

[2] = molecular target: T1, Rab geranylgeranyl transferase (GGTII) (Homo sapiens, UniProt P53611+Q92696); test: Prenyltransferase enzyme assay, RabGGT; assay type: biochemical
T1 sequence (Q92696 1-567): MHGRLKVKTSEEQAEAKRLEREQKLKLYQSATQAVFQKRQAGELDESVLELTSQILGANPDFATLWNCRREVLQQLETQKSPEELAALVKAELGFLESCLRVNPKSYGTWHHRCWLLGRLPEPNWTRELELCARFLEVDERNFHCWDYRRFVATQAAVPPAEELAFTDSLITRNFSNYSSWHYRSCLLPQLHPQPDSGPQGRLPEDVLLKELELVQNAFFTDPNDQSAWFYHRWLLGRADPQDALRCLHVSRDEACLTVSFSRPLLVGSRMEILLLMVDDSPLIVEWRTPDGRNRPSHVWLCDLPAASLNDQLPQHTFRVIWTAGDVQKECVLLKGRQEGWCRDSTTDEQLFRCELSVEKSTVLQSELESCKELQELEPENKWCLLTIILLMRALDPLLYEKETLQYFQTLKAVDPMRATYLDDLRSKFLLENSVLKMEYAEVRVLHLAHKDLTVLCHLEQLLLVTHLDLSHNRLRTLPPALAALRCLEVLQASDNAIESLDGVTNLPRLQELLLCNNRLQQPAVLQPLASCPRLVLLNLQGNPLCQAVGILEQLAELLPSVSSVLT
T1 sequence (P53611 1-331): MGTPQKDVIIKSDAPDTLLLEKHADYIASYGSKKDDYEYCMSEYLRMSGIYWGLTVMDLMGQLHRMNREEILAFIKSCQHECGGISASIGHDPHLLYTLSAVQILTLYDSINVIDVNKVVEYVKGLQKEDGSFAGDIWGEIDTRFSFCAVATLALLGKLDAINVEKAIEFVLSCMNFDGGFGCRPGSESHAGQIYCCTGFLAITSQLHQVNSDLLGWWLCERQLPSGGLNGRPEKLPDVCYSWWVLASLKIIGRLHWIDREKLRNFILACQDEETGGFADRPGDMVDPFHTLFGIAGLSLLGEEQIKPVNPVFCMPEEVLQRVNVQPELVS
Description: (§1) Enzyme Assays. Prenyltransferases and H-Ras processing inhibition were carried out as described earlier (Hunt et al., Rose et al., Lackner et al., Manne et al., and Lombardo et al).

HCT116 xenografts = HCT116 xenografts in nude mice; assay type: in vivo; details: at MTD: 600 mg/kg; for Activity in vivo, cures: cures per mice
FT = FT (Homo sapiens, UniProt P49354+P49356); test: Prenyltransferase enzyme assay, FT; assay type: biochemical
Description: as §1

[3] = molecular target: geranylgeranyl transferase I (GGTI) (Homo sapiens, UniProt P49354+P53609); test: Prenyltransferase enzyme assay, GGTI; assay type: biochemical
Description: as §1

HCT-116 cells [4] = test: Flow cytometry of HCT-116 P and Q cells (BrdU, p85 PARP, activated caspase 3); assay type: cell-based, human
Description: Untreated HCT-116 cells in P or in Q state (Panel a) were analyzed by flow cytometry. The y axis represents cell numbers and the x axis DNA content. […] The x axis indicates the level of activated caspase while the y axis represents percentage of total fluorescence adjusted to 100%. […] The x axis indicates the level of BrdU incorporation, while the y axis indicates the p85 cleaved PARP cells.

[5] = system: cross-linker site in HCT-116 quiescent cell extracts; test: Cross-linking competition with tritium labeled azido analogue BMS-540864; assay type: binding, human
[6] = molecular target: T2, Programmed cell death (AIF) (Homo sapiens, UniProt O95831); test: Affinity capture on monomeric avidin, ALL cell fractions, MS peptide hits; assay type: binding
T2 construct: Two peptides were detected for AIF in band B of the BMS-844472 eluates that were absent from the control eluates; endogenous in cells; host or cells: ALL cells (quiescent), nuclear and cytoplasmic fractions
Description: (§2) An important first step was to establish a source of cells that grew to high density and could remain viable even without replenishing the medium, so that they would be quiescent (Q). After several trials, the inventors settled on ALL cells. Nuclear and cytoplamic fractions were separated by low speed centrifugation after cell lysis with mild detergent. The nuclear fractions were treated with 0.5 M KCl and the chromatin spun out at 100,000 g for one hour. The cytoplasmic fraction was also spun at 100,000 g for one hour, glycerol was added to 20% and fractions frozen at −80 C. […] The fractions were loaded onto 1 ml columns of monomeric avidin beads that had been pretreated with biotin to block accessible sites and washed with pH 2.8 glycine buffer and the incubation buffer (see FIG. 10). Proteins were eluted from both columns with buffer containing 2 mM biotin, 10% TCA precipitated and analyzed on polyacrylamide gels. Bands A and B from the 1 mm gel shown in FIG. 11 were excised out and submitted to the proteomics group for analysis.

Protein phosphatase 1G = molecular target: T3, Protein phosphatase 1G (Homo sapiens, UniProt O15355); test: as above; assay type: binding
T3 construct: endogenous in cells; host or cells: ALL cells (quiescent), nuclear and cytoplasmic fractions
T3 sequence (O15355 1-546): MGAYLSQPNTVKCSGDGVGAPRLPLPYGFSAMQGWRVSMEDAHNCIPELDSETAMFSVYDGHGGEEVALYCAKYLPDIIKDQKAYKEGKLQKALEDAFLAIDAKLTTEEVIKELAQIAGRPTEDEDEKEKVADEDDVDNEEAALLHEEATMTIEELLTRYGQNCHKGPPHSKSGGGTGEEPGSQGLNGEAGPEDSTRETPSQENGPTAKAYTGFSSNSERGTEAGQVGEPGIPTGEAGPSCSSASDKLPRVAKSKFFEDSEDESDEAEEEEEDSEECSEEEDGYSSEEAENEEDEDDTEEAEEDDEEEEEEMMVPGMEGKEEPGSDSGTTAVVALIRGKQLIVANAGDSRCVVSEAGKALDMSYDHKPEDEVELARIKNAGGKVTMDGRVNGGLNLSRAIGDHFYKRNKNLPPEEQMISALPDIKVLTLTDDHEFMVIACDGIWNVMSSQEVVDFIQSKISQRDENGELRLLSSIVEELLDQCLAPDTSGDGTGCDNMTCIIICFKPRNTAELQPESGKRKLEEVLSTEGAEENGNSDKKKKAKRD
Description: as §2

[7] = molecular target: T4, Stress induced-phosphoprotein 1 (Hsp70/Hsp90-organizing protein) (Homo sapiens, UniProt P31948); test: as above; assay type: binding
T4 construct: endogenous in cells; host or cells: ALL cells (quiescent), nuclear and cytoplasmic fractions
Description: as §2

HCT/VM46 xenograft = test: HCT/VM46 multidrug resistant colon carcinoma xenograft; assay type: in vivo, mice
Description: FIG. 5. […] Panel c. […] Therefore, the consistently observed synergy of the combinations is highly sequence dependent, in vitro and in vivo.

T4 sequence (P31948 whole entry): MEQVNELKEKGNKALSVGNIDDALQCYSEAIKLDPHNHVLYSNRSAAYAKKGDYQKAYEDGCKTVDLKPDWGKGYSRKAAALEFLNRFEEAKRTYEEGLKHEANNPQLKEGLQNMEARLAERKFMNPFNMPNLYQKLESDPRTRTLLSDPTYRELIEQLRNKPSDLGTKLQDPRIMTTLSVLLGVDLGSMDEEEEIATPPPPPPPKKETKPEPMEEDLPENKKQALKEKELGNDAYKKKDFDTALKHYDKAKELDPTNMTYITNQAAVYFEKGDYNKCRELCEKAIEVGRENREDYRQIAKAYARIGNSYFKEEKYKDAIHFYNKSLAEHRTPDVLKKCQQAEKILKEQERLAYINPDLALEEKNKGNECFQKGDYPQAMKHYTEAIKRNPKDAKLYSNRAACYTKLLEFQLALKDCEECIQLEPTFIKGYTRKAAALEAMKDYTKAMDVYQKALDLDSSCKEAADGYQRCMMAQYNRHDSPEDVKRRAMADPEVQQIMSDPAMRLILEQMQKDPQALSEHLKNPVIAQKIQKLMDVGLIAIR
T2 sequence (O95831 102-613): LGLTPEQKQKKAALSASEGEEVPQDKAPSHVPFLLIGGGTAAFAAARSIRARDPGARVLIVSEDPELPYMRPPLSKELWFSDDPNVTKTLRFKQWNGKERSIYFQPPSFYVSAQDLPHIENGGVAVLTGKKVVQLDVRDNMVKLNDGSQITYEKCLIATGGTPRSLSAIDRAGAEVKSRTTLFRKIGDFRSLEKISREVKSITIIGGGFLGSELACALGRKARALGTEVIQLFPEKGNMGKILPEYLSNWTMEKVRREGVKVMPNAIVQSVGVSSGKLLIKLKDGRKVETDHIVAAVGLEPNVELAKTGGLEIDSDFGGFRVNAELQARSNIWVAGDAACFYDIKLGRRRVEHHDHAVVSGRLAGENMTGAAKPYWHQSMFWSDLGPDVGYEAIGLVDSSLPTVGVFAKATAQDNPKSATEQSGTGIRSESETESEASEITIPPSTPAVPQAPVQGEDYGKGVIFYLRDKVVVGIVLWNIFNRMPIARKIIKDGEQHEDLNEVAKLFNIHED

O=c1[nH]cc(F)c(=O)[nH]1 [5-fluorouracil]
preferential cytotoxicity P versus Q (HCT-116 cells [1]): preferentially cytotoxic to P tumor cells

N#Cc1ccc2c(c1)CN(S(=O)(=O)c1ccccc1)[C@H](Cc1ccccc1)CN2Cc1cnc[nH]1 [BMS-212347]
IC50 [2]: 41 nM
Activity in vivo, cures (HCT116 xenografts): 7/8
IC50 (FT): 2.4 nM
IC50 [3]: 1200 nM
P/Q selectivity (HCT-116 cells [1]): 47

Cn1cncc1CN1C[C@@H](Cc2ccccc2)N(S(=O)(=O)c2ccccc2)Cc2cc(C#N)ccc21 [BMS-223999]
IC50 [2]: 8 nM
Activity in vivo, LCK (log cell kill) when no cures were achieved (HCT116 xenografts): 0.4 LCK
Activity in vivo, cures (HCT116 xenografts): 0/8
IC50 (FT): 1.1 nM
IC50 [3]: 530 nM

Cn1cncc1CN1C[C@@H](Cc2ccccc2)N(S(=O)(=O)c2cccs2)Cc2cc(C#N)ccc21 [BMS-225975]
IC50 [2]: 12 nM
proapoptotic activity (HCT-116 cells [4]): does not induce apoptosis
Activity in vivo, LCK (log cell kill) when no cures were achieved (HCT116 xenografts): 0.3 LCK
Activity in vivo, cures (HCT116 xenografts): 0/8
competition for the cross-linker site [5]: able to compete
IC50 [3]: 900 nM
P/Q activity ratio (HCT-116 cells [1]): 0.7
P/Q selectivity (HCT-116 cells [1]): 11-100 1.4

N#Cc1ccc2c(c1)CN(S(=O)(=O)CCCNC(=O)CCCCCNC(=O)CCCC[C@H]1SC[C@H]3NC(=O)N[C@H]31)CCN2Cc1cnc[nH]1 [BMS-236724]
Peptide Hits Exp 1 [6]: 3
Peptide Hits Exp 2 [6]: 5
Peptide Hits Exp 1 (Protein phosphatase 1G): 4
Peptide Hits Exp 2 (Protein phosphatase 1G): 1
Peptide Hits Exp 1 [7]: 15
Peptide Hits Exp 2 [7]: 18

Cn1cncc1[C@@](N)(c1ccc(Cl)cc1)c1ccc2c(c1)c(-c1cccc(Cl)c1)cc(=O)n2C [R-115777]
P/Q activity ratio (HCT-116 cells [1]): 0.83

NC(=O)N1CCC(CC(=O)N2CCC([C@H]3c4ncc(Br)cc4CCc4cc(Cl)cc(Br)c43)CC2)CC1 [SCH66336]
P/Q activity ratio (HCT-116 cells [1]): 0.74

C/C(=C\c1csc(C)n1)[C@@H]1C[C@@H]2O[C@]2(C)CCC[C@H](C)[C@H](O)[C@@H](C)C(=O)C(C)(C)[C@@H](O)CC(=O)N1 [ixabepilone]
tumor cures (HCT/VM46 xenograft; cured mice of group): did not produce any tumor cures
tumor growth delay (HCT/VM46 xenograft; mouse, in vivo): 1.1 LCK
IC90 (HCT-116 cells [1]): 1.3 nM
relative sensitivity of P versus Q cells (HCT-116 cells [1]; P cells more sensitive): > 83 fold

CC(=O)O[C@H]1C(=O)[C@@]2(C)[C@H]([C@H](OC(=O)c3ccccc3)[C@]3(O)C[C@H](OC(=O)[C@H](O)[C@@H](NC(=O)c4ccccc4)c4ccccc4)C(C)=C1C3(C)C)[C@]1(OC(C)=O)CO[C@@H]1C[C@@H]2O [paclitaxel]
IC90 (HCT-116 cells [1]): 17.8 nM
Q cell values (IC90) (HCT-116 cells [1]; Q cells): not reached
